The values that follow come from patent US9303012B2, “Pyridine-2-amides useful as CB2 agonists” (Hoffmann-La Roche Inc., priority 2012, dated 2016).

In test [1] the target is human CB2 receptors (Homo sapiens (Human), UniProt P34972). As to the kind of experiment: functional cAMP assay, CHO cells expressing human CB2 receptors. It is filed as cell-based. An outline of the steps:
(§1)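 CHO-hCB1/hCB2 cells, KRB + 1 mM IBMX preincubation 30 min 30 °C; cpd 30 min 30 °C; lysis + TR-FRET cAMP detection, 2 h RT; cAMP from std curve; EC50.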

Test [2] concerns the target human CB1 receptors (Homo sapiens (Human), UniProt P21554). The experiment in a line: functional cAMP assay, CHO cells expressing human CB1 receptors. It counts as cell-based. An outline of the steps: as §1

Some results are limits rather than exact numbers.

Chain of human CB1 receptors (P21554 whole entry): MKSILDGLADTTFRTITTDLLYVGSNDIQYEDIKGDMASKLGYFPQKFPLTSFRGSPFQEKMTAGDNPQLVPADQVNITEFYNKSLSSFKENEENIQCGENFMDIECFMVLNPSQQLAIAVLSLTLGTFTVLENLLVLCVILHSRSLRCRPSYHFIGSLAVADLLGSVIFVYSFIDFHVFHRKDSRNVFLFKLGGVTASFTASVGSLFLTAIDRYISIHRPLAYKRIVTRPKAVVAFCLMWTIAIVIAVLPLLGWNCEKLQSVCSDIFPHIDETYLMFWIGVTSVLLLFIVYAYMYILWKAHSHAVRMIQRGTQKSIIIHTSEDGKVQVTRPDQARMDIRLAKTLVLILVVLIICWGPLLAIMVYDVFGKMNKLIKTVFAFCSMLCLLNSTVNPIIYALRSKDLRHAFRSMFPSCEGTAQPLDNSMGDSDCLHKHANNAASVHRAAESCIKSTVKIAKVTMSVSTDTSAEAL
Chain of human CB2 receptors (P34972 whole entry): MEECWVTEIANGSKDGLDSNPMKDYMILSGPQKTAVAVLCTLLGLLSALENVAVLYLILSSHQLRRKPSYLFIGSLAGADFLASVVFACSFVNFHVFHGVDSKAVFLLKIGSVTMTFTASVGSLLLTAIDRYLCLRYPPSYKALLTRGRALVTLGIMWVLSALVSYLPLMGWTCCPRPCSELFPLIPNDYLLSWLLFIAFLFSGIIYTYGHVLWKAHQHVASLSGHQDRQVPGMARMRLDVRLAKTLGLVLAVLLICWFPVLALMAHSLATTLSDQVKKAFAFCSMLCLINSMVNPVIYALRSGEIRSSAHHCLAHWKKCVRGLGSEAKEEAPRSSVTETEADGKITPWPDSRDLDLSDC

In the case of `NC(=O)C1CS(=O)(=O)CN1C(=O)c1ccc(C2(O)CCC2)c(OCC2CC2)n1` (stereo not shown) [Example 131, 3-[6-(Cyclopropylmethoxy)-5-(1-hydroxycyclobutyl)pyridine-2-carbonyl]-1,1-dioxo-1,3-thiazolidine-4-carboxamide], the half-maximal effective concentration (EC50) in test [1] is 62.5 nM; in test [2], above 10000 nM.

For the compound `CC1(O)C[C@@H](C(N)=O)N(C(=O)c2ccc(N3CC(F)(F)C3)c(OCC3CC3)n2)C1` (stereo partly drawn) [Example 132, (2S)-1-[6-(Cyclopropylmethoxy)-5-(3,3-difluoroazetidin-1-yl)pyridine-2-carbonyl]-4-hydroxy-4-methylpyrrolidine-2-carboxamide], the EC50 in test [1] is 30.1 nM; in test [2] it was above 10000 nM.

For the compound `NC(=O)C1CS(=O)(=O)CN1C(=O)c1ccc(C2(F)CCC2)c(OCC2CC2)n1` (stereo not shown) [Example 133, 3-[6-(Cyclopropylmethoxy)-5-(1-fluorocyclobutyl)pyridine-2-carbonyl]-1,1-dioxo-1,3-thiazolidine-4-carboxamide], the 50% effective concentration (EC50) in test [1] was 10.2 nM; in test [2], above 10000 nM.

Take `NC(=O)[C@@H]1CC(F)(F)CN1C(=O)c1ccc(C2(F)COC2)c(OCC2CC2)n1` [Example 134, (2S)-1-[6-(Cyclopropylmethoxy)-5-(3-fluorooxetan-3-yl)pyridine-2-carbonyl]-4,4-difluoropyrrolidine-2-carboxamide]: the concentration for a half-maximal effect (EC50) in test [1] is 52.2 nM; in test [2] it was above 10000 nM.

As for `NC(=O)C1CC2(CC2)CN1C(=O)c1ccc(N2CC(F)(F)C2)c(OCC2CC2)n1` (stereo not shown) [Example 135, 5-[6-(Cyclopropylmethoxy)-5-(3,3-difluoroazetidin-1-yl)pyridine-2-carbonyl]-5-azaspiro[2.4]heptane-6-carboxamide], the EC50 in test [1] was 15.6 nM; in test [2], above 10000 nM.

With `O=C(c1ccc(N2CC(F)(F)C2)c(OCC2CC2)n1)N1CCC(C(O)C(F)(F)F)C1` (stereo not shown) [Example 136, [6-(Cyclopropylmethoxy)-5-(3,3-difluoroazetidin-1-yl)pyridin-2-yl]-[3-(2,2,2-trifluoro-1-hydroxyethyl)pyrrolidin-1-yl]methanone], the EC50 in test [1] is 32.9 nM; in test [2] it was above 10000 nM.

`O=C(c1ccc(N2CC(F)(F)C2)c(OCC2CC2)n1)N1CCC(CO)(C(F)(F)F)C1` (stereo not shown) [Example 137, [6-(Cyclopropylmethoxy)-5-(3,3-difluoroazetidin-1-yl)pyridin-2-yl]-[3-(hydroxymethyl)-3-(trifluoromethyl)pyrrolidin-1-yl]methanone]: the 50% effective concentration (EC50) in test [1] is 53.8 nM; in test [2], above 10000 nM.

`O=C(c1ccc(N2CC(F)(F)C2)c(OCC2CC2)n1)N1CCC(O)(C(F)(F)F)C1` (stereo not shown) [Example 138, [6-(Cyclopropylmethoxy)-5-(3,3-difluoroazetidin-1-yl)pyridin-2-yl]-[3-hydroxy-3-(trifluoromethyl)pyrrolidin-1-yl]methanone]: the EC50 in test [1] was 83.5 nM; in test [2], above 10000 nM.

Take `O=C(c1ccc(N2CC(F)(F)C2)c(OCC2CC2)n1)N1CC(O)(C(F)(F)F)C1` [Example 139, [6-(Cyclopropylmethoxy)-5-(3,3-difluoroazetidin-1-yl)pyridin-2-yl]-[3-hydroxy-3-(trifluoromethyl)azetidin-1-yl]methanone]: the EC50 in test [1] was 42 nM; in test [2], above 10000 nM.

As for `C[C@]1(O)C[C@@H](C(N)=O)N(C(=O)c2ccc(N3CC(F)(F)C3)c(OCC3CC3)n2)C1` [Example 140, (+)-(2S)-1-[6-(Cyclopropylmethoxy)-5-(3,3-difluoroazetidin-1-yl)pyridine-2-carbonyl]-4-hydroxy-4-methylpyrrolidine-2-carboxamide], the EC50 in test [1] was 40.6 nM; in test [2], above 10000 nM.

Turning to `O=C(c1ccc(C2CC2)c(OCC2CC2)n1)N1CCC(C(O)C(F)(F)F)C1` (stereo not shown) [Example 141, [5-Cyclopropyl-6-(cyclopropylmethoxy)pyridin-2-yl]-[3-(2,2,2-trifluoro-1-hydroxyethyl)pyrrolidin-1-yl]methanone], the EC50 in test [1] was 262 nM; in test [2] it was above 10000 nM.
